Laboratory results from ChEMBL document CHEMBL3045266, “Lytic activity of l-menthol derivatives against the snow blight disease fungus, Micronectriella nivalis” (2003).
Active and inactive are the calls of the source. No cut-off for these calls is given here.

Assays:
[1] = system: Monographella nivalis var. nivalis; test: Lytic activity against Monographella nivalis var. nivalis MAFF 305031 assessed as hyphal lysis at 0.025 to 0.2 mg/ml after 48 hr by cotton blue staining; type: functional, organism-based
[2] = system: Monographella nivalis var. nivalis; test: Lytic activity against Monographella nivalis var. nivalis MAFF 305031 assessed as hyphal lysis at 0.2 mg/ml after 48 hr by cotton blue staining; type: functional
[3] = system: Monographella nivalis var. nivalis; test: Lytic activity against Monographella nivalis var. nivalis MAFF 305031 assessed as hyphal lysis after 48 hr by cotton blue staining; type: functional, organism-based
[4] = system: Monographella nivalis var. nivalis; test: Lytic activity against Monographella nivalis var. nivalis MAFF 305031 assessed as hyphal lysis at 0.05 mg/ml after 48 hr by cotton blue staining; type: functional

SMILES | Activity [1] | Activity [2] [%] | Activity [3] | Activity [4] [%]
CC(=O)O[C@H]1C[C@@H](C(C)C)[C@H](OC(C)=O)C[C@@H]1C | Active | 91.5 |  | 
CC(=O)O[C@H]1C[C@@H](C(C)(C)O)[C@H](OC(C)=O)C[C@@H]1C | Active | 95.2 |  | 
CC(=O)O[C@@H]1C[C@H](C)CC[C@H]1C(C)C | Active | 51.2 |  | 
CC(C)[C@@H]1CC[C@](C)(O)C[C@H]1O [(-)-(1S,3R,4S)-1-HYDROXYMENTHOL] |  | 63.9 | Dose-dependent effect | 
CC(=O)O[C@@H]1C[C@@](C)(O)CC[C@H]1C(C)C [(-)-(1S,3R,4S)-1-HYDROXYMENTHYL 3-MONOACETATE] | Active | 66 |  | 
C[C@H]1C[C@@H](O)[C@H](C(C)(C)O)C[C@@H]1O |  | 81.9 | Dose-dependent effect | 68.1
CC(C)[C@@H]1C[C@H](O)[C@@H](C)C[C@H]1O [(-)-(1S,3R,4S,6S)-6-HYDROXYMENTHOL] |  | 85 | Dose-dependent effect | 57.1
CC(C)[C@@H]1CC[C@@H](C)C[C@H]1O [LEVOMENTHOL] |  | 45.7 |  | 
